Experiments:
[1] = system: synaptotagmin-1 (Syt 1); assay: Untargeted proteomic analysis of cortexes, Syt 1; set-up: species or system rat; details: CBD 1000 nM, CBG 1 nM
Experimental: (§1) Sprague–Dawley rats (200–250 g) were sacrificed by CO2 inhalation (Italian Health Ministry authorization N. F4738.N.XTQ, delivered on 11th November 2018) and isolated prefrontal cortex specimens were immediately explanted and incubated in thermostatic shaking bath at 37 °C for 1 h (incubation period), in Krebs–Ringer buffer at the following K^+ concentrations:
(§2) Cortexes were stimulated with CBD (1000 nM) and CBD (1 nM). Afterwards, specimens were homogenized in perchloric acid solution (0.05 M) for the extraction and quantification of nitrites, via the aforementioned colorimetric Griess assay, and serotonin (5-HT), 5-hydroxyindoleacetic (5HIIA),3-hydroxykinurenine (3-HK) and kinurenic acid (KA) (ng/mg wet tissue) via high performance liquid chromatography analysis. Additionally, an untargeted proteomic analysis was carried out on the cortex homogenate. The analytical protocols for 5-HT, 5HIIA, 3-HK, KA and protein level determinations are described below. […]
(§3) After protein quantification, a volume corresponding to 50 μg of proteins was loaded onto a Nanosep 10-kDa-cutoff filter (Pall Corporation, Michigan, USA) and digested according to the protocol we routinely use in our laboratory, adapted from Distler et al. Briefly, the sample was washed twice with 200 μL urea buffer (8M urea, 100 mM Tris pH 8.5 in milliQ water) to remove the detergents present in the lysis buffer. […]

[2] = system: syntaxin 1b (Stx 1b); assay: Untargeted proteomic analysis of cortexes, Stx 1b; set-up: species or system rat; details: CBD 1000 nM, CBG 1 nM
Experimental: as §1, §2, §3

[3] = target: T1, BChE (butyrylcholinesterase) (Equus caballus, UniProt P81908); assay: BChE inhibition, colorimetric cholinesterase assay; type: biochemical, horse; details: mean ± S.D., n = 3
T1 construct: horse serum butyrylcholinesterase, EC 3.1.1.8, Sigma Aldrich S.r.L; purchased Sigma Aldrich S.r.L; host or cells: horse serum

[4] = DPPH scavenging ability test; details: mean ± S.D., n = 3
Experimental: For the 1,1-diphenyl-2-picrylhydrazyl (DPPH) radical scavenging assay, sample solution was added to 4 mL of a 0.004% methanol solution of DPPH. The sample absorbance was read at 517 nm after a 30 min incubation at room temperature in the dark. DPPH radical scavenging activity was expressed as IC50 values.

[5] = system: CTX-TNA2 astrocyte cell line; assay: Apoptosis occurrence, Annexin-V/PI flow cytometry; type: cell-based, rat; details: challenged with H2O2; CBD 1000 nM, CBG 1 nM; 24 h, lasting up to 48 h
Experimental: The CTX-TNA2 rat astrocytes were purchased from the European Collection of Cell Cultures (ECACC), Sigma-Aldrich, Milan, Italy, and cultured as already indicated. Cells were grown in Dulbecco’s Modified Eagle Medium supplemented with 10% of FBS and penicillin–streptomycin (100 µgmL^−1) (all from EuroClone SpA Life-Sciences-Division, Milan, Italy) and maintained in a humified atmosphere of 5% CO2 at 37 °C. Cells were subcultivated at a ratio of 1.2 to 1.8 and the medium was changed every 3 days. CTX-TNA2 astrocytes were plated in 25 or 75 cm^2 flasks, according to experimental needing and cells between the eight and the 15 passage were used.
When indicated, the cells were treated with H2O2 300 µM for three hours and different concentrations of CBD (1–1000 nM) and CBG (1–1000 nM). The stock solutions were diluted in cell medium to the point that the concentration of DMSO in the samples was less than 0.0003%. Therefore, the addition of DMSO to the control samples was not necessary.
A FITC Annexin-V apoptosis detection kit (BD Pharmingen, San Diego, CA, USA) was used to assess apoptosis, according to the manufacturer’s instructions. […] After the addition of 200 µL of binding buffer, samples were analyzed with a Cytoflex flow cytometer with the FL1 and FL3 detector in a log mode, using the Cytoexpert analysis software (both from Beckmann Coulter). […]

[6] = Ferric reducing antioxidant power (FRAP); details: mean ± S.D., n = 3
Experimental: For the ferric reducing antioxidant power (FRAP) activity assay, sample solution was added to premixed FRAP reagent (2 mL) containing acetate buffer (0.3 M, pH 3.6), 2,4,6-tris(2-pyridyl)-S-triazine (TPTZ) (10 mM) in 40 mM HCl and ferric chloride (20 mM) in a ratio of 10:1:1 (v/v/v). Then, the sample absorbance was read at 593 nm after a 30 min incubation at room temperature. FRAP activity was expressed as IC50 values.

T1 sequence (P81908 whole entry): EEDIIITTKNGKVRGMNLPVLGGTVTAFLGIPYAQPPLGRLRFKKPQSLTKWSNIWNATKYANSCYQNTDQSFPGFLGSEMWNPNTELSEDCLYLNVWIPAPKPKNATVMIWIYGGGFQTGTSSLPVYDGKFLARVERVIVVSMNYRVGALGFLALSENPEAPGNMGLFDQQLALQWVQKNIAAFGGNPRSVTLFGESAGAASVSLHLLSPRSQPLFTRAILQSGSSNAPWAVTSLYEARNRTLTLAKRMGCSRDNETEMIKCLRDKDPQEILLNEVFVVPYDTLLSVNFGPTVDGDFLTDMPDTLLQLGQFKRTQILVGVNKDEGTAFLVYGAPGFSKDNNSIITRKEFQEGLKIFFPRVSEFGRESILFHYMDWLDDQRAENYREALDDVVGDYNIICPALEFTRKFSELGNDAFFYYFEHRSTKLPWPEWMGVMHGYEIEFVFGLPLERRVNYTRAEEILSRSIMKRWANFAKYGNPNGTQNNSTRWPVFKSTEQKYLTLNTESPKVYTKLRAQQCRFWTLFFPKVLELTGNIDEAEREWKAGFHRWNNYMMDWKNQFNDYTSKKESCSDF

C=C(C)[C@@H]1CCC(C)=C[C@H]1c1c(O)cc(CCCCC)cc1O [CBD, Cannabidiol]
effect on K+ 60 mM-induced reduction in Syt 1 level [1]: blocking the downregulation | effect on K+ 60 mM-induced reduction in Stx 1b level [2]: blocking the downregulation | IC50 [3]: 1.88 ± 0.11 mM | IC50 [4]: 1.87 ± 0.04 mM | early apoptosis (Annexin-Vpos/PIneg cells) [5]: reduce early apoptosis | IC50 [6]: > 2 mM

CCCCCc1cc(O)c(C/C=C(\C)CCC=C(C)C)c(O)c1 [CBG, cannabigerol]
effect on K+ 60 mM-induced reduction in Syt 1 level [1]: completely ineffective | effect on K+ 60 mM-induced reduction in Stx 1b level [2]: completely ineffective | IC50 [3]: 1.48 ± 0.11 mM | IC50 [4]: 1.95 ± 0.01 mM | early apoptosis (Annexin-Vpos/PIneg cells) [5]: reduce early apoptosis | IC50 [6]: > 2 mM
